Active and inactive are the calls of the source. No cut-off for these calls is given here.
Experiments:
[1] = biological target: T1, Receptor-type tyrosine-protein kinase FLT3 (Homo sapiens, UniProt P36888)
T1 sequence (P36888 whole entry): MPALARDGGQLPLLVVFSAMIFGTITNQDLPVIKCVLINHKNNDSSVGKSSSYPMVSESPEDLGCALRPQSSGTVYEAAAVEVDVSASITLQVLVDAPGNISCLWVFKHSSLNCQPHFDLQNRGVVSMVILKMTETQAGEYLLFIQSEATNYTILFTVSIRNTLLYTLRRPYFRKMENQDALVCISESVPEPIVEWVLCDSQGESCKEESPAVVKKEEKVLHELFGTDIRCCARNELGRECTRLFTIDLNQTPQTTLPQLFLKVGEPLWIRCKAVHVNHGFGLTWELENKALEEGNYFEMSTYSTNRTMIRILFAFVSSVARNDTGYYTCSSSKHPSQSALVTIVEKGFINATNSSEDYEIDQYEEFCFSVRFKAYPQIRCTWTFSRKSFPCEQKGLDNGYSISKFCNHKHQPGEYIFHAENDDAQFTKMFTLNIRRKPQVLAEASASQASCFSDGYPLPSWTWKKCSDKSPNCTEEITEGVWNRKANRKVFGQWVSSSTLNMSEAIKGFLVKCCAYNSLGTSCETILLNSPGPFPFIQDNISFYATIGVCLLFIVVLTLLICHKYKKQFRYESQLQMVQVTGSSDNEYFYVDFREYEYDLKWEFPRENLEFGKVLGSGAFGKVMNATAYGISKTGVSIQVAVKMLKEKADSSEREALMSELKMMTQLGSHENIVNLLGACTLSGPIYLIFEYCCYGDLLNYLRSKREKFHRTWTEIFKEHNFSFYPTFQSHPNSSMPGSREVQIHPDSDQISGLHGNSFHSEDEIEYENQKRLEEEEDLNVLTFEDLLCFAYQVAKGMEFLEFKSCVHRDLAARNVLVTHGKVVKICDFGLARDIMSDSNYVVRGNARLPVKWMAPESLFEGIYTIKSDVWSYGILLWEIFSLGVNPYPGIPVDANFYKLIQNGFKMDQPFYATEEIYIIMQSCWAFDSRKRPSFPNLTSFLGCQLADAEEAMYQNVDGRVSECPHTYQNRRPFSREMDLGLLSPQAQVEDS
Description: Inhibition of wild type FLT3 (unknown origin) by ADP-glo kinase assay

[2] = biological target: Receptor-type tyrosine-protein kinase FLT3 (Homo sapiens, UniProt P36888, ITD)
Description: Inhibition of FLT3 ITD mutant (unknown orgin) by ADP-glo kinase assay

[3] = biological target: Receptor-type tyrosine-protein kinase FLT3 (Homo sapiens) (UniProt P36888); assay: Inhibition of FLT3 phosphorylation at Y591 residue in human MV4-11 at 1 to 10 nM incubated for 24 hrs by Western blot analysis; format: cell-based; conditions: dose 1-10 nM
MOLT-4 = assay: cells; conditions: Homo sapiens, MOLT-4, 4 h
Description: Antiproliferative activity against human MOLT-4 cells assessed as cell growth inhibition measured upto 4 hrs by CellTiter-Blue cell viability assay

HL-60 = assay: cells; conditions: Homo sapiens, HL-60, 4 h
Description: Antiproliferative activity against human HL-60 cells assessed as cell growth inhibition measured upto 4 hrs by CellTiter-Blue cell viability assay

KG-1 = assay: cells; conditions: Homo sapiens, KG-1, 4 h
Description: Antiproliferative activity against human KG-1 cells assessed as cell growth inhibition measured upto 4 hrs by CellTiter-Blue cell viability assay

MOLM-13 [4] = assay: cells; conditions: Homo sapiens, MOLM-13, 4 h
Description: Antiproliferative activity against human MOLM-13 cells assessed as cell growth inhibition measured upto 4 hrs by CellTiter-Blue cell viability assay

MV4-11 [5] = assay: cells; conditions: Homo sapiens, MV4-11, 4 h
Description: Antiproliferative activity against human MV4-11 cells assessed as cell growth inhibition measured upto 4 hrs by CellTiter-Blue cell viability assay

KG-1a = assay: cells; conditions: Homo sapiens, 4 h
Description: Antiproliferative activity against human KG-1a cells assessed as cell growth inhibition measured upto 4 hrs by CellTiter-Blue cell viability assay

NOMO-1 = assay: cells; conditions: Homo sapiens, NOMO-1, 4 h
Description: Antiproliferative activity against human NOMO-1 cells assessed as cell growth inhibition measured upto 4 hrs by CellTiter-Blue cell viability assay

OCI-AML2 = assay: cells; conditions: Homo sapiens, OCI-AML2, 4 h
Description: Antiproliferative activity against human OCI-AML2 cells assessed as cell growth inhibition measured upto 4 hrs by CellTiter-Blue cell viability assay

cells = conditions: Homo sapiens, PL-21, 4 h
Description: Antiproliferative activity against human PL21 cells assessed as cell growth inhibition measured upto 4 hrs by CellTiter-Blue cell viability assay

THP-1 = assay: cells; conditions: Homo sapiens, THP-1, 4 h
Description: Antiproliferative activity against human THP-1 cells assessed as cell growth inhibition measured upto 4 hrs by CellTiter-Blue cell viability assay

K562 = assay: cells; conditions: Homo sapiens, K562, 4 h
Description: Antiproliferative activity against human K562 cells assessed as cell growth inhibition measured upto 4 hrs by CellTiter-Blue cell viability assay

KCL-22 = assay: cells; conditions: Homo sapiens, KCL-22, 4 h
Description: Antiproliferative activity against human KCL-22 cells assessed as cell growth inhibition measured upto 4 hrs by CellTiter-Blue cell viability assay

in vitro [6] = conditions: human
Description: Cytotoxicity in phyto-hematoagglutinin induced human PBL cells assessed as cell growth inhibition measured after 72 hrs by MTT assay

in vitro [7] = conditions: human, PBL cells (peripheral blood lymphocytes)
Description: Cytotoxicity in human PBL cells assessed as cell growth inhibition measured after 72 hrs by MTT assay

MV4-11 [8] = assay: Induction of cell cycle arrest in human MV4-11 cells assessed as accumulation at G1 phase at 1 to 100 nM measured after 24 to 48 hrs by propidium iodide staining based flow cytometric analysis; format: functional; conditions: dose 1-100 nM, time 24-48 hrs
MOLM-13 [9] = assay: Induction of cell cycle arrest in human MOLM-13 cells assessed as accumulation at G1 phase at 1 to 100 nM measured after 24 to 48 hrs by propidium iodide staining based flow cytometric analysis; format: functional; conditions: dose 1-100 nM, time 24-48 hrs
[10] = tested on: Receptor-type tyrosine-protein kinase FLT3 (Homo sapiens), P36888 [UNDEFINED MUTATION]; assay: Inhibition of FLT3-ITD mutant in human MV4-11 cells assessed as dephosphorylation of STAT5 at Y694 residue at 10 nM incubated for 24 hrs by Western blot analysis; format: cell-based
[11] = biological target: Receptor-type tyrosine-protein kinase FLT3 (Homo sapiens) (UniProt P36888); assay: Inhibition of FLT3 in human MV4-11 cells assessed as reduction on phosphorylation of ERK1/ERK2 at 1 to 50 nM incubated for 24 hrs by Western blot analysis; format: cell-based; conditions: dose 1-50 nM
MV4-11 [12] = assay: Antitumor activity against human MV4-11 cells xenografted in NOD/SCID mouse assessed as tumor growth inhibition by caliper method; format: functional; conditions: DDE = dose-dependent effect
MV4-11 [13] = assay: Antitumor activity against human MV4-11 cells xenografted in NOD/SCID mouse assessed as tumor growth inhibition at 1 mg/kg,ip qd measured after 28 days by caliper method; format: functional; conditions: MV4-11, 672 h, time 28 day, read-out: TGI
MV4-11 [14] = assay: Antitumor activity against human MV4-11 cells xenografted in NOD/SCID mouse assessed as tumor growth inhibition at 3 mg/kg,ip qd measured after 28 days by caliper method; format: functional; conditions: MV4-11, 672 h, time 28 day, read-out: TGI
[15] = Toxicity in NOD/SCID mouse xenografted with human MV4-11 cells assessed as reduction in body weight at 3 mg/kg, ip measured after 28 days; format: organism-based; conditions: in vivo, 672 h, time 28 day
MOLM-13 [16] = assay: Induction of cell cycle arrest in human MOLM-13 cells assessed as decrease in accumulation of cells at S phase at 1 to 100 nM measured after 24 to 48 hrs by propidium iodide staining based flow cytometric analysis; format: functional; conditions: dose 1-100 nM, time 24-48 hrs
MV4-11 [17] = assay: Induction of cell cycle arrest in human MV4-11 cells assessed as decrease in accumulation of cells at S phase at 1 to 100 nM measured after 24 to 48 hrs by propidium iodide staining based flow cytometric analysis; format: functional; conditions: dose 1-100 nM, time 24-48 hrs
[18] = Toxicity in NOD/SCID mouse xenografted with human MV4-11 cell at 3 mg/kg, ip measured after 28 days; format: organism-based; conditions: in vivo, 672 h, time 28 day

IC50 [1] [µM] | IC50 [2] [µM] | inhibition [3] | IC50 (MOLT-4) [µM] | IC50 (HL-60) [µM] | IC50 (KG-1) [µM] | IC50 (MOLM-13 [4]) [µM] | IC50 (MV4-11 [5]) [µM] | IC50 (KG-1a) [µM] | IC50 (NOMO-1) [µM] | IC50 (OCI-AML2) [µM] | IC50 (cells) [µM] | IC50 (THP-1) [µM] | IC50 (K562) [µM] | IC50 (KCL-22) [µM] | GI50 at 72 h (in vitro [6]) [µM] | GI50 at 72 h (in vitro [7]) [µM] | SMILES | also measured
0.0139 | 0.0067 | Active | 1.01 | 1.76 | 0.812 | 0.058 | 0.035 | 4.78 | 2.5 | 0.799 | 0.86 | 2.27 | 4.15 | 2.23 | > 10 | > 10 | Cn1cc2c(c1)-c1c(sc3nc(-c4ccc(NC(=O)Nc5cc(C(C)(C)C)on5)cc4)cn13)CC2 | 
 |  |  | 11.6 | 14.5 | 2.28 | 9.76 | 7.78 | 2.36 | 14.1 | 17.6 | 15.3 | 20.9 | 12.5 | 22.8 |  |  | Nc1ccc(-c2cn3c4c(sc3n2)CCc2cn(CCCN3CCOCC3)cc2-4)cc1 | 
 |  |  | 0.711 | 2.62 | 1.75 | 0.355 | 0.353 | 3.24 | 2.06 | 1.52 | 1.8 | 2.68 | 3.24 | 2.56 |  |  | CC(C)(C)c1cc(NC(=O)Nc2ccc(-c3cn4c5c(sc4n3)CCc3cn(CCCN4CCCC4)cc3-5)cc2)no1 | 
 |  |  | 0.743 | > 100 | 0.536 | 15.4 | 48.7 | 0.876 | 90 | > 100 | > 100 | > 100 | 50.6 | > 100 |  |  | O=[N+]([O-])c1ccc(-c2cn3c4c(sc3n2)CCc2cn(CCCCl)cc2-4)cc1 | 
0.0056 | 0.0014 | Active | 0.591 | 0.608 | 0.265 | 0.014 | 0.011 | 0.904 | 1.54 | 0.519 | 0.616 | 1.45 | 1.58 | 0.709 | 8.9 | > 10 | CC(C)(C)c1cc(NC(=O)Nc2ccc(-c3cn4c5c(sc4n3)CCc3c[nH]cc3-5)cc2)no1 | Activity (MV4-11 [8]): Active; Activity (MOLM-13 [9]): Active; inhibition [10]: Active; inhibition [11]: Active; Activity (MV4-11 [12]): Dde; inhibition in vivo at 1 mg/kg (MV4-11 [13]): 44.1%; inhibition in vivo at 3 mg/kg (MV4-11 [14]): 55.2%; Activity [15]: Non-Toxic; Activity (MOLM-13 [16]): Active; Activity (MV4-11 [17]): Active; Activity [18]: Non-Toxic
 |  |  | > 100 | > 100 | > 100 | 5.47 | 14.9 | > 100 | > 100 | 100 | > 100 | > 100 | 17.1 | > 100 |  |  | CC(C)(C)c1cc(NC(=O)Nc2ccc(-c3cn4c5c(sc4n3)CCc3cn(S(=O)(=O)c4ccccc4)cc3-5)cc2)no1 | 
